From paper PMC4182091, “A Common Minimal Motif for the Ligands of HLA-B*27 Class I Molecules” (PLoS ONE, 2014) come the findings set out here.

By EC50 is commonly meant the midpoint of the concentration-response curve.

Where two headings read alike, the source gives them in different places. Ends that are not written are not given here.

Assay type in all cases: cell-based
One experiment concerns the target T1, HLA-B*2705 (Homo sapiens, UniProt P01889, D138H/D201E/E176V/E204Q/G107R/H137Y/K202T/N104T/N87E/Q56L/Q94K/R106L/R155S/R180L/S101D/S121N/S48T/Y140D/Y33H/Y91C).
T1 construct: expressed in transfected cells; host or cells: RMA-S (TAP-deficient murine cell line)
The experiment can be described thus: HLA/peptide complex stability assay, RMA-S cells transfected with HLA-B*2705. The following applies: for fluorescence index, B*2705: peptide 200 µM.

The target in another experiment is HLA-B*2702 (Homo sapiens, UniProt P01889, D138H/D201E/E176V/E204Q/G107R/H137Y/K202T/L105A/N104I/N87E/Q56L/Q94K/R106L/R155S/R180L/S101N/S121N/S48T/Y140D/Y33H/Y91C). In words: HLA/peptide complex stability assay, RMA-S cells transfected with HLA-B*2702. The following applies: for fluorescence index, B*2702: peptide 200 µM.
The target in another experiment is T2, HLA-B*2701 (Homo sapiens, UniProt P01889, D138H/D201E/D98Y/E176V/E204Q/G107R/H137Y/K202T/L105A/N104T/N87E/Q56L/Q94K/R106L/R155S/R180L/S101N/S121N/S48T/Y140D/Y33H/Y91C).
T2 construct: expressed in transfected cells; host or cells: RMA-S (TAP-deficient murine cell line)
The experiment can be described thus: HLA/peptide complex stability assay, RMA-S cells transfected with HLA-B*2701. The following applies: for fluorescence index, B*2701: peptide 200 µM.

For a further experiment, the target named is T3, HLA-B*2709 (Homo sapiens, UniProt P01889, D138H/D201E/E176V/E204Q/G107R/H137Y/K202T/N104T/N87E/Q56L/Q94K/R106L/R155S/R180L/S101D/S121N/S48T/Y140H/Y33H/Y91C).
T3 construct: expressed in transfected cells; host or cells: RMA-S (TAP-deficient murine cell line)
In words: HLA/peptide complex stability assay, RMA-S cells transfected with HLA-B*2709. The following applies: SD; for fluorescence index, B*2709: peptide 200 µM.

A further experiment concerns the target T4, HLA-B*2706 (Homo sapiens, UniProt P01889, A235G/D201E/E204Q/G107R/H137Y/K202T/N104T/N87E/Q56L/Q94K/R106L/R155S/R180L/S121N/S48T/Y33H/Y91C).
T4 construct: expressed in transfected cells; host or cells: RMA-S (TAP-deficient murine cell line)
The experiment can be described thus: HLA/peptide complex stability assay, RMA-S cells transfected with HLA-B*2706. The following applies: SD; for fluorescence index, B*2706: peptide 200 µM.

The next experiment concerns the target HLA-B*2704 (Homo sapiens, UniProt P01889, A235G/D138H/D201E/E204Q/G107R/H137Y/K202T/N104T/N87E/Q56L/Q94K/R106L/R155S/R180L/S121N/S48T/Y140D/Y33H/Y91C). In words: HLA/peptide complex stability assay, RMA-S cells transfected with HLA-B*2704. The following applies: for fluorescence index, B*2704: peptide 200 µM.
The target of a further experiment is T5, HLA-B*2703 (Homo sapiens, UniProt P01889, D138H/D201E/E176V/E204Q/G107R/H137Y/K202T/N104T/N87E/Q56L/Q94K/R106L/R155S/R180L/S101D/S121N/S48T/Y140D/Y33H/Y83H/Y91C).
T5 construct: expressed in transfected cells; host or cells: RMA-S (TAP-deficient murine cell line)
The experiment can be described thus: HLA/peptide complex stability assay, RMA-S cells transfected with HLA-B*2703. The following applies: for fluorescence index, B*2703: peptide 200 µM.

Where [1] appears, read: […], mean ± S.D. of three to five independent experiments, SD.
[2] abbreviates: […], mean ± S.D. of three to five independent experiments.
The mark [3] stands for this setting: relative affinity (EC50 class), B*2702.
[4] abbreviates: relative affinity (EC50 class), B*2701.
The mark [5] stands for this setting: relative affinity (EC50 class), B*2703.
[6] abbreviates: Table 1, transfected RMA-S cells, 2 h 26°C then 2 h 37°C, ME1 mAb, flow cytometry, ratio to control without peptide, mean ± S.D. of three to five independent experiments, SD.
The mark [7] stands for this setting: Table 4, monosubstituted Ala analogs, transfected RMA-S cells, flow cytometry, mean ± S.D. of three to five independent experiments, SD.
Setting [8] is: Table 1, transfected RMA-S cells, 2 h 26°C then 2 h 37°C, ME1 mAb, flow cytometry, ratio to control without peptide, mean ± S.D. of three to five independent experiments.
Setting [9] is: Table 4, monosubstituted Ala analogs, transfected RMA-S cells, flow cytometry, mean ± S.D. of three to five independent experiments.

Regarding “RRANNVLKNEA [A11-NP 184-194, monosubstituted Ala analog of HRSV NP 184-194, […]]”, at HLA-B*2705 (setting [1]), the “fluorescence index, B*2705” value came out at 2.1±0.1. Besides, at HLA-B*2702 (setting [1]), the “fluorescence index, B*2702” value is listed as 1.7±0.1. The “fluorescence index, B*2701” value on HLA-B*2701 (setting [1]) stood at 1.1±0.1. Besides, the “fluorescence index, B*2709” value at HLA-B*2709 (setting [2]) is 1.8±0.1. The “fluorescence index, B*2706” value on HLA-B*2706 (setting [2]) was found to be 2.7±0.2. Further, the “fluorescence index, B*2704” value at HLA-B*2704 (setting [1]) is 2.0±0.2. For the same sequence, the “fluorescence index, B*2703” value at HLA-B*2703 (setting [1]) is 1.7±0.2.

Turning to RRANNVLKNEM [NP 184-194], the “relative MHC class I affinity according to the EC50 value, in words (high, medium, low)” value (from here on “relative MHC class I affinity according”) at HLA-B*2705 is listed as “high”. Also, the EC50 was 20 ± 8 µM at HLA-B*2705 (EC50, B*2705, SD); 43 ± 27 µM on HLA-B*2702 (EC50, B*2702, SD); 20 to 60 µM at HLA-B*2702 (setting [3]); 39 ± 9 µM on HLA-B*2701 (EC50, B*2701, SD); 20 to 60 µM on HLA-B*2701 (setting [4]); 7 ± 1 µM at HLA-B*2709 (EC50, B*2709). Moreover, the EC50 at HLA-B*2706 (EC50, B*2706) was 2000 ± 1000 nM; at HLA-B*2704 (EC50, B*2704, SD) it was 19 ± 10 µM; at HLA-B*2703 (EC50, B*2703, SD), 60 ± 29 µM; at HLA-B*2703 (setting [5]), 20 to 60 µM.

In the case of “RRYPDAVYL [MV F 438-466, reference compound]”, the EC50 was 3 ± 2 µM on HLA-B*2705 (Table 2, peptide concentration at 50% of maximum fluorescence, range 0.01–200 µM, transfected RMA-S cells, flow cytometry, mean ± S.D. of three to five independent experiments, - = no statistical difference in fluorescence index to negative control, SD, read-out: EC50, B*2705); 11 ± 4 µM on HLA-B*2702 (Table 2, peptide concentration at 50% of maximum fluorescence, range 0.01–200 µM, transfected RMA-S cells, flow cytometry, mean ± S.D. of three to five independent experiments, - = no statistical difference in fluorescence index to negative control, SD, read-out: EC50, B*2702); 5 ± 2 µM on HLA-B*2701 (Table 2, peptide concentration at 50% of maximum fluorescence, range 0.01–200 µM, transfected RMA-S cells, flow cytometry, mean ± S.D. of three to five independent experiments, - = no statistical difference in fluorescence index to negative control, SD, read-out: EC50, B*2701); 4 ± 1 µM at HLA-B*2709 (Table 2, peptide concentration at 50% of maximum fluorescence, range 0.01–200 µM, transfected RMA-S cells, flow cytometry, mean ± S.D. of three to five independent experiments, - = no statistical difference in fluorescence index to negative control, read-out: EC50, B*2709); 2000 ± 1000 nM on HLA-B*2706 (Table 2, peptide concentration at 50% of maximum fluorescence, range 0.01–200 µM, transfected RMA-S cells, flow cytometry, mean ± S.D. of three to five independent experiments, - = no statistical difference in fluorescence index to negative control, read-out: EC50, B*2706); 18 ± 4 µM on HLA-B*2704 (Table 2, peptide concentration at 50% of maximum fluorescence, range 0.01–200 µM, transfected RMA-S cells, flow cytometry, mean ± S.D. of three to five independent experiments, - = no statistical difference in fluorescence index to negative control, SD, read-out: EC50, B*2704). Besides, the EC50 at HLA-B*2703 (Table 2, peptide concentration at 50% of maximum fluorescence, range 0.01–200 µM, transfected RMA-S cells, flow cytometry, mean ± S.D. of three to five independent experiments, - = no statistical difference in fluorescence index to negative control, SD, read-out: EC50, B*2703) came to 4 ± 3 µM.

For the sequence SRSALLAQM [M 76-84], the “relative MHC class I affinity according” value at HLA-B*2705 is given as “high”. Further, the EC50 on HLA-B*2705 (EC50, B*2705, SD) is 5 ± 5 µM; on HLA-B*2702 (EC50, B*2702) it was over 200 µM; at HLA-B*2702 (setting [3]) it was over 200 µM; at HLA-B*2701 (EC50, B*2701, SD), 15 ± 11 µM; on HLA-B*2709 (EC50, B*2709) it was 6 ± 2 µM; at HLA-B*2706 (EC50, B*2706), 1000 ± 1000 nM. Further, the EC50 at HLA-B*2704 (EC50, B*2704, SD) came out at 15 ± 6 µM; at HLA-B*2703 (EC50, B*2703, SD), 6 ± 3 µM.

Regarding “VAFTSHEHF [CMV pp65, reference compound]”, the “fluorescence index, B*2705” value on HLA-B*2705 (setting [6]) and at HLA-B*2705 (setting [7]) was 1.0±0.1 in each case. The “fluorescence index, B*2702” value at HLA-B*2702 (setting [6]) and at HLA-B*2702 (setting [7]) was 1.0±0.1 each time. In addition, the “fluorescence index, B*2701” value on HLA-B*2701 (setting [6]) and on HLA-B*2701 (setting [7]) was 1.0±0.1 throughout. Further, the “fluorescence index, B*2709” value at HLA-B*2709 (setting [8]) and at HLA-B*2709 (setting [9]) was 1.1±0.1 throughout. The “fluorescence index, B*2706” value on HLA-B*2706 (setting [8]) and at HLA-B*2706 (setting [9]) was 1.0±0.1 throughout. Further, the “fluorescence index, B*2704” value on HLA-B*2704 (setting [6]) and at HLA-B*2704 (setting [7]) was 1.0±0.1 throughout. For the same sequence, the “fluorescence index, B*2703” value on HLA-B*2703 (setting [6]) and at HLA-B*2703 (setting [7]) was 1.0±0.1 throughout.

In the case of VRNKDLNTL [M 169-177], the “relative MHC class I affinity according” value at HLA-B*2705 is recorded as “low affinity”. For the same sequence, the EC50 is 82 ± 20 µM on HLA-B*2705 (read-out: EC50, B*2705, SD); 61 to 200 µM at HLA-B*2705 (relative affinity (EC50 class), B*2705); 94 ± 25 µM at HLA-B*2702 (EC50, B*2702, SD); 61 to 200 µM at HLA-B*2702 (setting [3]); over 200 µM at HLA-B*2701 (EC50, B*2701); over 200 µM at HLA-B*2701 (setting [4]). Moreover, the EC50 on HLA-B*2709 (EC50, B*2709) was 19 ± 7 µM; on HLA-B*2706 (EC50, B*2706), 3000 ± 1000 nM; at HLA-B*2704 (EC50, B*2704, SD), 56 ± 16 µM; on HLA-B*2704 (relative affinity (EC50 class), B*2704), 20 to 60 µM; at HLA-B*2703 (EC50, B*2703), over 200 µM; at HLA-B*2703 (setting [5]) it was over 200 µM.
